We go through twelve compounds from PubChem BioAssay (NCI).

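Five concentrations, 48 hours, 96-well plates. GI50: concentration for 50% inhibition of growth. TGI is the concentration that stops growth completely.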

Test systems include A549 NSCLC; BT-549 breast; CCRF-CEM leukemia; HCT-15 colon; HS 578T breast; MALME-3M melanoma; SF-539 CNS; TK-10 renal; UACC-257 melanoma; CAKI-1 renal.
Test in all cases: inhibition of tumour cell growth, NCI panel, 48 h

As for `C=C1C(=O)O[C@H]2[C@H]1CC/C(COC(=O)c1cn(C)c3ccccc13)=C\CC[C@@]1(C)O[C@@H]21`, the GI50 in the assay on A549 NSCLC was 1.82 µM; in the assay with BT-549 breast it was 0.514 µM; with CCRF-CEM leukemia, 0.217 µM; in the assay with HCT-15 colon, 0.539 µM; in the assay on HS 578T breast, 2.39 µM; in the assay with MALME-3M melanoma, 1.62 µM. The GI50 was 0.741 µM in the assay on SF-539 CNS, 1.1 µM in the assay with TK-10 renal and 1.32 µM with UACC-257 melanoma. Moreover, the TGI is 4.23 µM with A549 NSCLC; 1.99 µM in the assay on BT-549 breast; 0.94 µM with CCRF-CEM leukemia; 2.26 µM in the assay with HCT-15 colon; 9.47 µM with HS 578T breast; 3.34 µM in the assay on MALME-3M melanoma. Moreover, the TGI with SF-539 CNS amounted to 2.13 µM; in the assay on TK-10 renal, 2.3 µM; in the assay with UACC-257 melanoma it was 2.65 µM.
Consider `COc1cccc(OC(=O)c2ccc(C(F)(F)F)nc2Nc2c(C)cccc2Cl)c1`, for which the GI50 was 22.8 µM with A549 NSCLC; 30.4 µM in the assay on BT-549 breast; 16.3 µM in the assay with CAKI-1 renal; 25.6 µM in the assay on CCRF-CEM leukemia; 54.1 µM with HCT-15 colon; 24.7 µM with HS 578T breast. Besides, the GI50 was 23.4 µM in the assay on SF-539 CNS and 33.4 µM with UACC-257 melanoma. Further, the TGI with A549 NSCLC was 58.6 µM; in the assay on BT-549 breast it was > 100 µM; in the assay on CAKI-1 renal it was 48.8 µM; in the assay with CCRF-CEM leukemia, 78.9 µM; in the assay with HCT-15 colon, > 100 µM; in the assay with HS 578T breast, 94.6 µM. Besides, the TGI in the assay with SF-539 CNS was 70.4 µM; with UACC-257 melanoma, > 100 µM.
Turning to `CCCCC[C@H]1CC=C2C(=O)C=C[C@@H]2CC=CCCCC(=O)O[C@@H](CCCCC)CC=C2C(=O)C=C[C@@H]2CC=CCCCC(=O)O[C@@H](CCCCC)CC=C2C(=O)C=C[C@@H]2CC=CCCCC(=O)O1`, the GI50 with A549 NSCLC was 0.529 µM; with BT-549 breast, 0.241 µM; in the assay with CCRF-CEM leukemia it was 0.251 µM; with HCT-15 colon, 0.718 µM; in the assay with HS 578T breast it was 0.773 µM; in the assay with MALME-3M melanoma, 0.295 µM. Also, the GI50 with SF-539 CNS was 0.322 µM; with TK-10 renal, 0.478 µM; with UACC-257 melanoma, 0.456 µM. The TGI in the assay on A549 NSCLC is 2.12 µM; in the assay with BT-549 breast, 0.772 µM; with CCRF-CEM leukemia, > 8.75 µM; in the assay with HCT-15 colon it was 5.73 µM; with HS 578T breast, > 8.75 µM; in the assay with MALME-3M melanoma, > 8.75 µM. Moreover, the TGI is > 8.75 µM in the assay with SF-539 CNS, 3.53 µM in the assay on TK-10 renal and 2.2 µM with UACC-257 melanoma.
`O=C1CSC(c2ccc(-c3nc4ccccc4[nH]3)cc2)=N1`: the GI50 was 18.8 µM in the assay on A549 NSCLC; 42.4 µM in the assay with BT-549 breast; > 50 µM in the assay with CAKI-1 renal; 16.7 µM in the assay with HCT-15 colon; 25.1 µM with HS 578T breast; 12.2 µM in the assay on SF-539 CNS. For the same compound, the GI50 in the assay on TK-10 renal is > 50 µM; with UACC-257 melanoma, 20.3 µM. The TGI in the assay on A549 NSCLC is > 50 µM; in the assay on BT-549 breast, > 50 µM; in the assay on CAKI-1 renal it was > 50 µM; in the assay with HCT-15 colon, > 50 µM; in the assay on HS 578T breast, > 50 µM; in the assay with SF-539 CNS, 42.1 µM. Moreover, the TGI in the assay with TK-10 renal and with UACC-257 melanoma was > 50 µM each time.
For the compound `CCCCCCCCCCCC[N+](C)(C)Cc1ccccc1`, the GI50 with A549 NSCLC is 2.04 µM; with BT-549 breast it was 1.74 µM; with CAKI-1 renal it was 5.84 µM; in the assay with CCRF-CEM leukemia, 1.88 µM; in the assay with HCT-15 colon it was 13.1 µM; in the assay with HS 578T breast it was 1.95 µM. Besides, the GI50 is 1.66 µM in the assay on SF-539 CNS and 1.82 µM in the assay on UACC-257 melanoma. For the same compound, the TGI amounted to 5.21 µM in the assay with A549 NSCLC; 3.29 µM with BT-549 breast; 24.8 µM in the assay on CAKI-1 renal; 5.43 µM with CCRF-CEM leukemia; 34.3 µM with HCT-15 colon; 5.96 µM in the assay on HS 578T breast. Also, the TGI worked out at 3.17 µM with SF-539 CNS and 4.25 µM in the assay with UACC-257 melanoma.
For the compound `CCN1C(=O)N(CC)C2C1NN=c1s/c(=C\c3cccs3)c(=O)n12` (stereo not given), the GI50 was 0.244 µM in the assay with A549 NSCLC; 0.443 µM in the assay on BT-549 breast; 0.0745 µM in the assay on CAKI-1 renal; 0.256 µM in the assay with CCRF-CEM leukemia; 0.0575 µM with HCT-15 colon; 0.112 µM in the assay on HS 578T breast. Moreover, the GI50 with SF-539 CNS was 0.0949 µM; in the assay with TK-10 renal, > 100 µM; in the assay with UACC-257 melanoma it was > 100 µM. The TGI was > 100 µM in the assay on A549 NSCLC; > 100 µM in the assay with BT-549 breast; > 100 µM with CAKI-1 renal; > 100 µM with CCRF-CEM leukemia; > 100 µM with HCT-15 colon; 0.812 µM in the assay with SF-539 CNS. The TGI in the assay with TK-10 renal and in the assay with UACC-257 melanoma was > 100 µM in each case.
For the compound `Cc1c(N)nc([C@H](CC(N)=O)NC[C@H](N)C(N)=O)nc1C(=O)N[C@H](C(=O)N[C@H](C)[C@@H](O)CC(=O)N[C@H](C(=O)NC(O[C@@H]1O[C@@H](C)[C@@H](N)[C@@H](O)[C@H]1O)C(O)c1nc(-c2nc(C(=O)NCCCCN)cs2)cs1)[C@@H](C)O)[C@@H](O[C@@H]1O[C@@H](CO)[C@@H](O)[C@H](O)[C@@H]1O[C@H]1O[C@H](CO)[C@@H](O)[C@H](OC(N)=O)[C@@H]1O)c1c[nH]cn1` (stereo not given in full), the TGI with A549 NSCLC, in the assay with BT-549 breast, in the assay with CAKI-1 renal, with CCRF-CEM leukemia, in the assay with HCT-15 colon and with HS 578T breast was > 50 µM in each case. In addition, the TGI in the assay with SF-539 CNS, in the assay on TK-10 renal and in the assay with UACC-257 melanoma was > 50 µM in each case.
For the compound `c1ccc2cc(Cn3cc[n+](Cc4ccc5ccccc5c4)c3)ccc2c1`, the GI50 was 7.97 µM with A549 NSCLC; 1.18 µM in the assay with BT-549 breast; 1.61 µM in the assay on CCRF-CEM leukemia; 14.9 µM with HCT-15 colon; 1.28 µM in the assay with HS 578T breast; 0.413 µM in the assay with MALME-3M melanoma. Moreover, the GI50 with SF-539 CNS was 1.98 µM; with TK-10 renal, 3.32 µM; in the assay with UACC-257 melanoma it was 0.587 µM. Also, the TGI in the assay on A549 NSCLC amounted to 22.9 µM; with BT-549 breast it was 3.15 µM; in the assay with CCRF-CEM leukemia, 11 µM; in the assay on HCT-15 colon it was 29.5 µM; in the assay with HS 578T breast, 8.97 µM; with MALME-3M melanoma, 2.49 µM. Further, the figures for the TGI with SF-539 CNS, in the assay with TK-10 renal and in the assay on UACC-257 melanoma were 9.27 µM, 14.3 µM and 2.55 µM, respectively.
Regarding `CCNc1cc2oc(=O)cc(C(F)(F)F)c2cc1C`, the TGI in the assay on A549 NSCLC, in the assay with BT-549 breast, in the assay with CAKI-1 renal, with HCT-15 colon, in the assay with HS 578T breast and in the assay with SF-539 CNS was > 100 µM each time. In addition, the TGI in the assay with TK-10 renal and with UACC-257 melanoma was > 100 µM each time.
Regarding `COc1cc(-c2nn(-c3cccc(NC(=O)NCCNS(=O)(=O)c4ccc(Cl)cc4)c3)cc2-c2ccncc2)ccc1Cl`, the GI50 in the assay on A549 NSCLC is 1.93 µM; with BT-549 breast, 1.23 µM; in the assay with CCRF-CEM leukemia, 0.419 µM; in the assay on HCT-15 colon it was 2.45 µM; with HS 578T breast, 0.351 µM; in the assay on MALME-3M melanoma it was 0.588 µM. The GI50 was 0.48 µM with SF-539 CNS, 2.81 µM in the assay on TK-10 renal and 0.541 µM in the assay on UACC-257 melanoma. In addition, the TGI in the assay with A549 NSCLC is 37.4 µM; in the assay on BT-549 breast it was 5.14 µM; with CCRF-CEM leukemia, > 100 µM; in the assay on HCT-15 colon, 8.55 µM; in the assay on HS 578T breast it was 5.14 µM; with MALME-3M melanoma, 2.87 µM. In addition, the TGI with SF-539 CNS was 2.11 µM; in the assay on TK-10 renal, 9.26 µM; in the assay on UACC-257 melanoma it was 3.34 µM.
For `Cc1ccc2[nH]c3c(c2c1)N=c1ccccc1=NO3`, the GI50 in the assay on A549 NSCLC was > 100 µM; in the assay on BT-549 breast, 14.2 µM; in the assay with CAKI-1 renal, 10.5 µM; in the assay with CCRF-CEM leukemia it was > 100 µM; in the assay on HCT-15 colon, > 100 µM; in the assay with MALME-3M melanoma, 20 µM. The GI50 in the assay on SF-539 CNS is 10.6 µM; in the assay on TK-10 renal, 38.2 µM; with UACC-257 melanoma, 70.6 µM. Moreover, the TGI with A549 NSCLC is > 100 µM; with BT-549 breast it was 51.6 µM; in the assay with CAKI-1 renal it was 47.6 µM; in the assay with CCRF-CEM leukemia, > 100 µM; with HCT-15 colon, > 100 µM; in the assay on MALME-3M melanoma, 54.1 µM. In addition, the TGI in the assay on SF-539 CNS is 27.6 µM; in the assay with TK-10 renal, > 100 µM; with UACC-257 melanoma, > 100 µM.
Regarding `COc1cc(OC)cc(-c2nc3sccn3c2/C=N/N=C(N)N)c1`, the GI50 is 10 µM with A549 NSCLC; 6.87 µM with BT-549 breast; 8.03 µM in the assay with CAKI-1 renal; 10.9 µM with CCRF-CEM leukemia; 8.1 µM in the assay on HCT-15 colon; 12.6 µM in the assay on HS 578T breast. Also, the GI50 was 8.26 µM in the assay on SF-539 CNS, 6.29 µM in the assay on TK-10 renal and 7.74 µM in the assay on UACC-257 melanoma. The TGI with A549 NSCLC was 19.8 µM; in the assay with BT-549 breast, 14 µM; with CAKI-1 renal, 15.2 µM; in the assay with CCRF-CEM leukemia, 19.5 µM; in the assay with HCT-15 colon, 14.9 µM; with HS 578T breast, 25.3 µM. Besides, the TGI in the assay on SF-539 CNS was found to be 15.7 µM; in the assay with TK-10 renal it was 12.6 µM; in the assay on UACC-257 melanoma it was 16.1 µM.
